Earlier results on three compounds are cited in US9221029B2, “Automatic system for synthesizing 123I-MIBG and automatic device for synthesizing and dispensing 123I-MIBG comprising the same” (Institute of Nuclear Energy Research Atomic Energy Council, …, priority 2013, dated 2015).

The structures appear in SMILES notation. Read-outs that look alike come from different tables or passages of the source.

Series [1] relates to neuroblastoma. The following applies: 21 neuroblastoma patients; especially at bones.
A further series concerns neuroblast. The following applies: after intravenous injection.
Series [2] has as its system tumors (neuroblastoma cells). The following applies: after false-positive and false-negative imaging results are ruled out.
The conditions of series [3]: used for diagnosis.
The test system of series [4] is neuroblastoma. The following applies: in vivo.
The conditions of series [5]: despite the use of oral potassium iodide (KI).
The conditions of series [6]: ranging from 15 minutes to 48 hours.

Consider `N=C(N)NCc1cccc(I)c1` [MIBG, meta-iodobenzylguanidine], for which the “sensitivity of imaging compared with FDG-PET” value in the series on neuroblastoma [1] is reported as “higher sensitivity”. Moreover, in the series on neuroblast, the gathered in neuroblast was 90%.

Regarding `N=C(N)NCc1cccc([123I])c1` [^123I-MIBG, iodine-123 meta-iodobenzylguanidine], in series [2], the “specifically bound to tumors” value is given as roughly 100%. Also, the “patients with accumulated ^123I-MIBG in salivary glands” value in series [3] is reported as 92-100%.

On to `N=C(N)NCc1cccc([131I])c1` [^131I-MIBG], for which the “excreted out of the body through urine” value is given as 57% (24 hours after injection) and 70% (48 hours after injection). Also, for the setting “one hour after injection, neuroblastoma patients”, the “still exists in the blood” value is no more than 10%. Further, the “treatment effective rate on neuroblastoma” value with neuroblastoma [4] is reported as 30-40%. Besides, the “side effects of therapy” value in series [5] is given as “hypothyroidism still occurs”. Further, the saliva-to-plasma ratio entry in series [6] is listed as “greater than 1.0”.
